# From PubChem BioAssay (NCI)
# Values joined by “and” are separate entries in the source; they are usually repeats but may differ in a detail not shown here. Identical values can stand only once.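 Method: 48-hour compound exposure of cells in 96-well plates, five concentrations, linear interpolation of endpoints. GI50 = concentration required for 50% inhibition of growth. TGI: concentration producing complete growth inhibition.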
# Assays:
# Assay in all cases: NCI anticancer screen, dose series, 48 h
# [1] = test system: SF-295 CNS
# [2] = test system: RXF 393 renal
# [3] = test system: OVCAR-8 ovarian
# [4] = test system: LOX IMVI melanoma
# [5] = test system: NCI-H226 lung
# [6] = test system: TK-10 renal
# [7] = test system: HOP-62 NSCLC
# [8] = test system: HT29 colon
# [9] = test system: HCT-15 colon
# [10] = test system: HL-60(TB) leukemia
SMILES,TGI [1],TGI [2] [µM],TGI [3],TGI [4],TGI [5] [µM],TGI [6] [µM],TGI [7] [µM],TGI [8],TGI [9],GI50 [1],GI50 [10] [µM],TGI [10],GI50 [3],GI50 [4] [µM],GI50 [5] [µM],GI50 [6] [µM],GI50 [7] [µM],GI50 [8] [µM],GI50 [9],GI50 [2] [µM]
COc1ccc(C(=O)NCCN(C)C)c2nc3ccccc3nc12,> 36.1 µM,25.4,> 41.5 µM,6.48 µM,16.8,76.7,9.06,15.1 µM,24.4 µM,,,,,,,,,,,
O=C1CCCCN1CCCCC#Cc1cccc(C#Cc2cccnc2)c1,84 µM,,67.9 µM,25.9 µM,34,> 100,31.4,40 µM,17.7 µM,18.1 µM,16.2,70 µM,21.6 µM,8.55,12.9,49.8,15.2,11.9,3.96 µM,
COC(=O)C(/C(=N\O)C(=O)Nc1cccc(Cl)c1C)c1cnc2ccccc2n1 (stereo unspecified),> 100 µM,> 100,> 100 µM,> 100 µM,> 100,> 100,> 100,> 100 µM,> 100 µM,,,,,,,,,,,
O=c1c(F)cn(Cc2ccccc2CCl)c(=O)n1Cc1ccccc1CCl,6.16 µM,,2.99 µM,2.78 µM,2.71,5.44,4.84,4.71 µM,4.45 µM,2.14 µM,1.51,3.63 µM,0.977 µM,1.23,0.539,2.15,2.35,2.01,1.83 µM,
Cn1cc(C2=C(c3cn(C4CCN(Cc5ccccn5)CC4)c4ccccc34)C(=O)NC2=O)c2ccccc21,> 26.1 µM,25.3,> 100 µM,> 100 µM,,> 100,54.9,> 100 µM,> 100 µM,3.49 µM,3.97,> 100 µM,6.23 µM,4.9,,> 41.5,12.1,2.4,3.44 µM,2.59
CCC1=CC2CN(C1)Cc1c([nH]c3ccccc13)[C@@](C(=O)OC)(c1cc3c(cc1OC)N(C)[C@H]1[C@@](O)(C(=O)OC)[C@H](OC(C)=O)[C@]4(CC)C=CCN5CC[C@]31[C@@H]54)C2 (stereo partly specified),50 µM and > 100 µM,,50 µM and > 100 µM,50 µM and > 100 µM,50,,43.8,6 µM and 20.9 µM,50 µM and > 100 µM,0.0151 µM and 0.0231 µM,< 0.005,0.00984 µM and 0.0285 µM,0.0201 µM and 0.0306 µM,< 0.005,19.8,,0.0135,< 0.005,0.277 µM and 0.416 µM,
C[N+](C)(C)CC1CCCCC1O (stereo unspecified),> 100 µM,> 100,> 100 µM,> 100 µM,> 100,> 100,> 100,> 100 µM,> 100 µM,,,,,,,,,,,
CCOC(=O)NC(=O)c1cn(CCN2CCN(C(=O)CCCCCCCCCCC(=O)N3CCN(CCn4cc(C(=O)NC(=O)OCC)c(=O)[nH]c4=O)CC3)CC2)c(=O)[nH]c1=O,> 100 µM,,> 100 µM,> 100 µM,> 100,> 100,> 100,> 100 µM,,,,,,,,,,,,
CSc1nnc(COc2ccc(Cl)cc2)o1,> 100 µM,> 100,> 100 µM,> 100 µM,,> 100,> 100,> 100 µM,> 100 µM,,,,,,,,,,,
COc1ccc(/C(=N\NC(=S)NN)C(c2ccc(OC)cc2)C2C(=O)Oc3ccccc32)cc1 (stereo unspecified),> 100 µM,> 100,> 100 µM,,> 100,> 100,,> 100 µM,> 100 µM,> 100 µM,> 100,> 100 µM,> 100 µM,,> 100,> 100,,> 100,> 100 µM,> 100
O=c1cc(/C=C/c2ccccc2)[nH]c2cc3c(cc12)OCO3,13.7 µM,22,19.9 µM,,10.8,29.4,14.5,5.58 µM,8.23 µM,3 µM,,,,,2.91,,,,,4.27
CCCCn1c(-c2ccc(C(=O)O/N=C(\N)c3ccc4c(c3)OCO4)cc2)nc(-c2ccccc2)c1-c1ccccc1,4.38 µM,4.93,> 100 µM,0.379 µM,> 100,,4.03,> 100 µM,> 100 µM,2.03 µM,0.603,2.75 µM,3.37 µM,0.185,3.93,,1.82,3.33,2.63 µM,1.85
Cc1ccccc1C(=O)N1CCN(C(=O)c2ccccc2C)CC1,> 100 µM,> 100,> 100 µM,> 100 µM,,> 100,> 100,> 100 µM,> 100 µM,,,> 100 µM,,,,,,,,
N#Cc1ccc(NC(=O)C(CC(=O)OCc2ccccc2)NC(=O)OCc2ccccc2)cc1 (stereo unspecified),> 100 µM,> 100,> 100 µM,> 100 µM,,> 100,,> 100 µM,> 100 µM,> 100 µM,,,> 100 µM,> 100,,> 100,,> 100,> 100 µM,> 100
COc1ccc(CN2CCC/C=C/CC(Cl)(Cl)C2=O)cc1,68.6 µM,78.7,> 100 µM,> 100 µM,,> 100,> 100,> 100 µM,> 100 µM,,,69.2 µM,,,,,,,,
O=C(/C=C/c1ccccc1)CC(=O)CCC(=O)Nc1ccc(Cl)cc1,> 100 µM,,> 100 µM,> 100 µM,> 100,> 100,> 100,> 100 µM,> 100 µM,,,> 100 µM,,,,,,,,
CCOC(=O)C(NC(=O)c1nc[nH]c1[N+](=O)[O-])C(C)C (stereo unspecified),> 100 µM,,> 100 µM,> 100 µM,> 100,,> 100,> 100 µM,> 100 µM,,,> 100 µM,,,,,,,,
